Results as given in PMC11855478, “Bicyclic N,S-Acetals Containing Fused Cysteine-Amide System as New Heterocyclic Class Targeting Human Farnesyltransferase (FTase-h)” (International Journal of Molecular Sciences, 2025).

Columns and labels:
HCT-116 (Colon Cancer) = test: NCI one dose, HCT-116; format: cell-based, human; conditions: HCT-116, 1.00E-5 Molar one dose
Procedure: (§1) 3.4. Cell Proliferation Assay
(§2) Selected compounds were tested on a panel of 60 human cancer cell lines at the National Cancer Institute (NCI), Germantown, MD, USA. The cytotoxicity studies were conducted using a 48 h exposure protocol using the sulfo-rhodamine B assay.

MDA-MB-435 (Melanoma) = test: NCI one dose, MDA-MB-435; format: cell-based, human; conditions: MDA-MB-435, 1.00E-5 Molar one dose
Procedure: as §1, §2

MCF7 (Breast Cancer) = test: NCI one dose, MCF7; format: cell-based, human; conditions: MCF7, 1.00E-5 Molar one dose
Procedure: as §1, §2

786-0 (Renal Cancer) = test: NCI one dose, 786-0; format: cell-based, human; conditions: 786-0, 1.00E-5 Molar one dose
Procedure: as §1, §2

MOLT-4 (Leukemia) = test: NCI one dose, MOLT-4; format: cell-based, human; conditions: MOLT-4, 1.00E-5 Molar one dose
Procedure: as §1, §2

[1] = system: NCI-H522 non-small cell lung cancer cells; test: NCI cell proliferation, NCI-H522; format: cell-based, human; conditions: for inhibition at 10 µM: Homo sapiens, NCI-H522, read-out: % Cancer cell growth Inhibition (NCI-H522); for Growth Percent: NCI-H522, 1.00E-5 Molar one dose
Procedure: as §1, §2

TK-10 (Renal Cancer) = test: NCI one dose, TK-10; format: cell-based, human; conditions: TK-10, 1.00E-5 Molar one dose
Procedure: as §1, §2

[2] = system: HOP-92 (Non-Small Cell Lung Cancer); test: NCI one dose, HOP-92; format: cell-based, human; conditions: HOP-92, 1.00E-5 Molar one dose
Procedure: as §1, §2

PC-3 (Prostate Cancer) = test: NCI one dose, PC-3; format: cell-based, human; conditions: PC-3, 1.00E-5 Molar one dose
Procedure: as §1, §2

HT29 (Colon Cancer) = test: NCI one dose, HT29; format: cell-based, human; conditions: HT29, 1.00E-5 Molar one dose
Procedure: as §1, §2

[3] = system: NCI-H460 (Non-Small Cell Lung Cancer); test: NCI one dose, NCI-H460; format: cell-based, human; conditions: NCI-H460, 1.00E-5 Molar one dose
Procedure: as §1, §2

SR (Leukemia) = test: NCI one dose, SR; format: cell-based, human; conditions: 1.00E-5 Molar one dose
Procedure: as §1, §2

[4] = target: human farnesyltransferase (FTase) (Homo sapiens, UniProt P49354+P49356); test: FTase inhibitory assay (fluorescence, Dansyl-GCVLS); format: biochemical; conditions: for % FTI: inhibition of human FTase at 100 μM of tested compound, mean of two experiments
Procedure: With 40 new products in hand, the determination of their inhibitory activity on human farnesyl-transferase (FTase) in vitro was first undertaken. Dimethyl sulfoxide (DMSO) was used as the negative control, and Chaetomellic acid A was the positive reference in all assays. At the outset, and in order to select only significant results, products with an inhibitory power greater than 60% at an initial screening concentration of 100 µM were retained for the determination of their IC50 and, therefore, for further discussion. Moreover, given the number of products tested, they are grouped into three subfamilies on the basis of the degree of the sulphur atom oxidation (series of sulfides, series of sulfoxides, and series of sulfones), and the results obtained are grouped in Table 1, Table 2 and Table 3.
3.3. FTase Inhibitory Assay
Assays were realized in 96-well plates, prepared with a Biomek NKMC and a Biomek 3000 from Beckman Coulter, and read on a Wallac Victor fluorimeter from PerkinElmer. Per well, 20 µL of farnesyl pyrophosphate (10 μM) was added to 180 µL of a solution containing 2 µL of varied concentrations of potential inhibitors (dissolved in DMSO) and 178 μL of a solution composed of 10 μL of partially purified recombinant human FTase (15 µg mL^−1) and 1.0 µL of Dansyl-GCVLS peptide (in the following buffer: 5.6 mM DTT, 5.6 mM MgCl2, 12 μM ZnCl2 and 0.2% (w/v) octyl-β-D-glucopyranoside, 52 mM Tris/HCl, pH 7.5). Fluorescence was recorded for 15 min (0.7 s per well, 20 repeats) at 30 °C with an excitation filter at 340 nm and an emission filter of 486 nm. Each measurement was reproduced twice, in duplicate. The kinetic experiments were realized under the same conditions, either with FPP as varied substrate with a constant concentration of Dns-GCVLS of 2.5 μM or with Dns-GCVLS as varied substrate with a constant concentration of FPP of 10 μM. Non-linear regressions were performed using the Excel software.

[5] = system: A549/ATCC (Non-Small Cell Lung Cancer); test: NCI one dose, A549/ATCC; format: cell-based, human; conditions: 1.00E-5 Molar one dose
Procedure: as §1, §2

[6] = system: NCI/ADR-RES (Ovarian Cancer); test: NCI one dose, NCI/ADR-RES; format: cell-based, human; conditions: 1.00E-5 Molar one dose
Procedure: as §1, §2

SK-MEL-28 (Melanoma) = test: NCI one dose, SK-MEL-28; format: cell-based, human; conditions: SK-MEL-28, 1.00E-5 Molar one dose
Procedure: as §1, §2

SW-620 (Colon Cancer) = test: NCI one dose, SW-620; format: cell-based, human; conditions: SW-620, 1.00E-5 Molar one dose
Procedure: as §1, §2

M14 (Melanoma) = test: NCI one dose, M14; format: cell-based, human; conditions: M14, 1.00E-5 Molar one dose
Procedure: as §1, §2

SK-MEL-5 (Melanoma) = test: NCI one dose, SK-MEL-5; format: cell-based, human; conditions: SK-MEL-5, 1.00E-5 Molar one dose
Procedure: as §1, §2

[7] = system: HOP-62 (Non-Small Cell Lung Cancer); test: NCI one dose, HOP-62; format: cell-based, human; conditions: HOP-62, 1.00E-5 Molar one dose
Procedure: as §1, §2

DU-145 (Prostate Cancer) = test: NCI one dose, DU-145; format: cell-based, human; conditions: DU-145, 1.00E-5 Molar one dose
Procedure: as §1, §2

UO-31 renal cancer cells = test: NCI one dose, UO-31; format: cell-based, human; conditions: UO-31, 1.00E-5 Molar one dose
Procedure: as §1, §2

HCT-15 (Colon Cancer) = test: NCI one dose, HCT-15; format: cell-based, human; conditions: HCT-15, 1.00E-5 Molar one dose
Procedure: as §1, §2

OVCAR-8 (Ovarian Cancer) = test: NCI one dose, OVCAR-8; format: cell-based, human; conditions: OVCAR-8, 1.00E-5 Molar one dose
Procedure: as §1, §2

[8] = system: MDA-MB-231/ATCC (Breast Cancer); test: NCI one dose, MDA-MB-231/ATCC; format: cell-based, human; conditions: 1.00E-5 Molar one dose
Procedure: as §1, §2

SNB-75 (CNS Cancer) = test: NCI one dose, SNB-75; format: cell-based, human; conditions: SNB-75, 1.00E-5 Molar one dose
Procedure: as §1, §2

[9] = system: MDA-MB-468 breast cancer cells; test: NCI one dose, MDA-MB-468; format: cell-based, human; conditions: MDA-MB-468, 1.00E-5 Molar one dose
Procedure: as §1, §2

Row | % FTI [4] [%] | SMILES | Growth Percent (HCT-116 (Colon Cancer)) [%] | Growth Percent (MDA-MB-435 (Melanoma)) [%] | Growth Percent (MCF7 (Breast Cancer)) [%] | Growth Percent (786-0 (Renal Cancer)) [%] | Growth Percent (MOLT-4 (Leukemia)) [%] | inhibition at 10 µM [1] [%] | Growth Percent [1] [%] | Growth Percent (TK-10 (Renal Cancer)) [%] | Growth Percent [2] [%] | Growth Percent (PC-3 (Prostate Cancer)) [%] | Growth Percent (HT29 (Colon Cancer)) [%] | Growth Percent [3] [%] | Growth Percent (SR (Leukemia)) [%] | Growth Percent [5] [%] | Growth Percent [6] [%] | Growth Percent (SK-MEL-28 (Melanoma)) [%] | Growth Percent (SW-620 (Colon Cancer)) [%] | Growth Percent (M14 (Melanoma)) [%] | Growth Percent (SK-MEL-5 (Melanoma)) [%] | further results
1 | 51 | C[C@@]12SC[C@@H](C(=O)NCc3cccc(C(F)(F)F)c3)N1C(=O)c1ccccc12 [4bD] | 87.94 | 102.18 | 85.93 | 100.40 | 75.84 | 31 | 68.93 | 101.65 | 88.94 | 92.84 | 78.21 | 109.48 | 75.10 | 77.57 | 100.57 | 108.59 | 108.66 | 103.59 | 101.35 | Growth Percent [7]: 90.69%; Growth Percent (DU-145 (Prostate Cancer)): 108.47%; Growth Percent (UO-31 renal cancer cells): 81.22%; Growth Percent (HCT-15 (Colon Cancer)): 95.74%; Growth Percent (OVCAR-8 (Ovarian Cancer)): 92.35%; Growth Percent [8]: 97.63%; Growth Percent (SNB-75 (CNS Cancer)): 93.18%; Growth Percent [9]: 97.93%
2 | 67 | COc1ccc(CNC(=O)[C@@H]2CS[C@@]3(C)c4ccccc4C(=O)N23)cc1 [4bF] | 93.74 | 102.01 | 90.37 | 98.12 | 76.38 | 28 | 72.32 | 99.99 | 80.27 | 93.51 | 84.10 | 110.45 | 84.33 | 80.46 | 97.36 | 106.19 | 106.66 | 102.83 | 103.30 | IC50 ([4]; human FTase in vitro): 9.21 µM; Growth Percent [7]: 95.58%; Growth Percent (DU-145 (Prostate Cancer)): 105.22%; Growth Percent (UO-31 renal cancer cells): 89.30%; Growth Percent (HCT-15 (Colon Cancer)): 101.20%; Growth Percent (OVCAR-8 (Ovarian Cancer)): 94.06%; Growth Percent [8]: 93.86%; Growth Percent (SNB-75 (CNS Cancer)): 94.53%; Growth Percent [9]: 86.72%
3 | 58 | C[C@@]12SC[C@@H](C(=O)NCc3ccccc3C(F)(F)F)N1C(=O)c1ccccc12 [4bC] | 89.85 | 98.98 | 90.83 | 101.91 | 74.60 | 19 | 80.71 | 92.04 | 87.86 | 80.00 | 79.15 | 105.02 | 72.94 | 69.56 | 101.64 | 111.34 | 104.67 | 100.54 | 100.19 | Growth Percent [7]: 97.48%; Growth Percent (DU-145 (Prostate Cancer)): 102.05%; Growth Percent (UO-31 renal cancer cells): 91.39%; Growth Percent (HCT-15 (Colon Cancer)): 100.40%; Growth Percent (OVCAR-8 (Ovarian Cancer)): 92.54%; Growth Percent [8]: 100.45%; Growth Percent (SNB-75 (CNS Cancer)): 96.49%; Growth Percent [9]: 101.77%

Further lines, the compound ahead of its results:

Row | SMILES | % FTI [4] [%] | Growth Percent (HCT-116 (Colon Cancer)) [%] | Growth Percent (MDA-MB-435 (Melanoma)) [%] | Growth Percent (MCF7 (Breast Cancer)) [%] | Growth Percent (786-0 (Renal Cancer)) [%] | Growth Percent (MOLT-4 (Leukemia)) [%] | inhibition at 10 µM [1] [%] | Growth Percent [1] [%] | Growth Percent (TK-10 (Renal Cancer)) [%] | Growth Percent [2] [%] | Growth Percent (PC-3 (Prostate Cancer)) [%] | Growth Percent (HT29 (Colon Cancer)) [%] | Growth Percent [3] [%] | Growth Percent (SR (Leukemia)) [%] | Growth Percent [5] [%] | Growth Percent [6] [%] | Growth Percent (SK-MEL-28 (Melanoma)) [%] | Growth Percent (SW-620 (Colon Cancer)) [%] | Growth Percent (M14 (Melanoma)) [%] | Growth Percent (SK-MEL-5 (Melanoma)) [%] | further results
4 | COc1ccccc1CNC(=O)[C@@H]1CS[C@H]2c3ccccc3C(=O)N12 [4aG] | 21 | 105.23 | 110.28 | 102.38 | 107.93 | 97.42 | 30 | 69.93 | 90.98 | 102.49 | 102.91 | 77.01 | 110.17 | 83.51 | 78.79 | 105.58 | 116.98 | 105.78 | 104.36 | 103.84 | Growth Percent [7]: 104.24%; Growth Percent (DU-145 (Prostate Cancer)): 106.12%; Growth Percent (UO-31 renal cancer cells): 94.39%; Growth Percent (HCT-15 (Colon Cancer)): 107.09%; Growth Percent (OVCAR-8 (Ovarian Cancer)): 96.60%; Growth Percent [8]: 109.17%; Growth Percent (SNB-75 (CNS Cancer)): 98.49%; Growth Percent [9]: 101.62%
5 | COc1ccccc1CNC(=O)[C@@H]1CS[C@@]2(C)c3ccccc3C(=O)N12 [4bG] | 30 | 99.72 | 103.94 | 92.90 | 104.93 | 96.78 | 30 | 70.03 | 91.89 | 98.11 | 98.65 | 79.32 | 107.31 | 82.72 | 78.33 | 102.18 | 109.27 | 104.41 | 100.11 | 98.16 | Growth Percent [7]: 98.30%; Growth Percent (DU-145 (Prostate Cancer)): 107.06%; Growth Percent (UO-31 renal cancer cells): 94.50%; Growth Percent (HCT-15 (Colon Cancer)): 98.16%; Growth Percent (OVCAR-8 (Ovarian Cancer)): 95.21%; Growth Percent [8]: 98.66%; Growth Percent (SNB-75 (CNS Cancer)): 96.63%; Growth Percent [9]: 93.22%
